# Assay results taken from patent publication US5994629A, “Positive selection” (priority 1991, dated 1999).
# Where a name gives a salt, the structure may show the parent alone.
# Key:
# [1] = test system: leaf discs of tobacco without (GUS-) introduced β-glucuronidase genes; type: cell-based, Nicotiana tabacum 'Wisconsin 38'; conditions: test compounds at several concentrations up to 250 μM in MSO
# [2] = test system: leaf discs of tobacco with (GUS+) introduced β-glucuronidase genes; type: cell-based, Nicotiana tabacum 'Wisconsin 38'; conditions: test compounds at several concentrations up to 250 μM in MSO
# [3] = target: β-glucuronidase from E. coli (Escherichia coli, UniProt P05804); experiment: Hydrolysis by β-glucuronidase (GUS), HPLC/TLC; type: biochemical; conditions: for Hydrolysis by β-glucuronidase (GUS), result in words: 50 mM sodium phosphate buffer pH 7.0, 37° C., HPLC/TLC
# Sequence of β-glucuronidase from E. coli (P05804 whole entry, looked up): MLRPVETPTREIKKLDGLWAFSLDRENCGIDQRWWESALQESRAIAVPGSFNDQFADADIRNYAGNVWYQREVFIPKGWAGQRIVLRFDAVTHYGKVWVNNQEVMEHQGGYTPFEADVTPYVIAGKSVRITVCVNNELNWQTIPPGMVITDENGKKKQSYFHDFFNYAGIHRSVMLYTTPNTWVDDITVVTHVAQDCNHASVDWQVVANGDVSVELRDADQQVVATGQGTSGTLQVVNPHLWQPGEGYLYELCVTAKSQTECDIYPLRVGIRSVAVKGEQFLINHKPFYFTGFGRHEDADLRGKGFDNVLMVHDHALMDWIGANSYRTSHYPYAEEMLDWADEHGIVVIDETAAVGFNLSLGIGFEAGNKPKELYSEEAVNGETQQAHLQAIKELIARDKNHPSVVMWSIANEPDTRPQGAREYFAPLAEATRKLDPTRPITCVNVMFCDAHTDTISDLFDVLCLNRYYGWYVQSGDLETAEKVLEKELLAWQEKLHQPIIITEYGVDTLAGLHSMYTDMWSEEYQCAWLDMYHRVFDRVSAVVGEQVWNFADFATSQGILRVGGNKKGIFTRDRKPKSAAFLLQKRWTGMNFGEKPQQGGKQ
# Procedure: […] […] This confirms the identity of the product as a conjugate of BA and β-D-glucuronic acid.
# […] The presence of hydrolysis products is then determined using HPLC and TLC.
# explants = experiment: Inhibition of the toxicity of mannose by methyl-3-O-glucose; type: cell-based
# Text: Example 25 is repeated except that the selection/regeneration substrate is supplemented with methyl 3-0-glucose (MOG) at the concentrations indicated in Table 25. The percentage of live explants is registered after 8 weeks.
# [4] = test system: plant material transgenic for the mannose 6-phosphate isomerase gene; experiment: Effect of methyl-3-O-glucose on selection of transgenic shoots on mannose; type: cell-based; conditions: mannose 15 g/l, no sucrose
# Text: The transformed plant material is transgenic for the mannose 6-phosphate isomerase gene. After 21 days the selected shoots are harvested.
# Wild type explants = experiment: Shoot regeneration on mannose, sucrose and methyl-3-O-glucose, wild type; type: cell-based; conditions: Wild type
# [5] = test system: explants transgenic for the mannose 6-phosphate isomerase gene; experiment: Shoot regeneration on mannose, sucrose and methyl-3-O-glucose, Man-6-P-isomerase; type: cell-based; conditions: Man-6-P-isomerase
# [6] = MOG 2.5, mannose 0 g/l, sucrose 10 g/l
# [7] = MOG 2.5, mannose 5 g/l, sucrose 0 g/l
# [8] = MOG 2.5, mannose 5 g/l, sucrose 10 g/l
# [9] = MOG 2.5, mannose 10 g/l, sucrose 0 g/l
# [10] = MOG 2.5, mannose 10 g/l, sucrose 10 g/l
# [11] = MOG 2.5, mannose 20 g/l, sucrose 0 g/l
# [12] = MOG 2.5, mannose 20 g/l, sucrose 10 g/l
# [13] = MOG 5.0, mannose 0 g/l, sucrose 0 g/l
# [14] = MOG 5.0, mannose 0 g/l, sucrose 10 g/l
# [15] = MOG 5.0, mannose 5 g/l, sucrose 0 g/l
# [16] = MOG 5.0, mannose 5 g/l, sucrose 10 g/l
# [17] = MOG 5.0, mannose 10 g/l, sucrose 0 g/l
# [18] = MOG 5.0, mannose 10 g/l, sucrose 10 g/l
# [19] = MOG 5.0, mannose 20 g/l, sucrose 0 g/l
# [20] = MOG 5.0, mannose 20 g/l, sucrose 10 g/l
structure (smiles),measurement,setting,value
O=C(O)[C@H]1OC(O)[C@H](O)[C@@H](O)[C@@H]1O (some centres unmarked) [Glucuronic acid],"Shoot formation, GUS-",[1],"- (""-"" means no shoot formation at concentrations below 250 μM)"
same,"Shoot formation, GUS+",[2],"- (""-"" means no shoot formation at concentrations below 250 μM)"
"CC(C)=CCNc1ncn([C@@H]2O[C@H](C(=O)[O-])[C@@H](O)[C@H](O)[C@H]2O)c2ncnc1-2.[Na+] [IP3GN sodium salt, 3-β-D-glucopyranuronosyl-6-(3-methyl-but-2-enylamino)purine, sodium salt]","Hydrolysis by β-glucuronidase (GUS), result in words",[3],removal of the UV spot corresponding to IP3GN
same,"Shoot formation, GUS-",[1],"+ (""+"" means shoot formation at concentrations below 250 μM)"
same,"Shoot formation, GUS+",[2],"+ (""+"" means shoot formation at concentrations below 250 μM)"
"CC(C)=CCNc1ncnc2[nH]c(S[C@@H]3O[C@H](C(=O)O)[C@@H](O)[C@H](O)[C@H]3O)nc12 [IP8SGN sodium salt, 6-(3-methyl-but-2-enylamino)purine-8-yl-1-thio-β-D-glucopyranuronic acid, sodium salt]",conversion to the aglycone by GUS,"[3]; 1 mg/ml, 2500 units GUS, 24 hours, 37° C., TLC",> 95%
same,"Shoot formation, GUS-",[1],"+ (""+"" means shoot formation at concentrations below 250 μM)"
same,"Shoot formation, GUS+",[2],"+ (""+"" means shoot formation at concentrations below 250 μM)"
"CO[C@H]1[C@H](O)[C@@H](CO)OC(O)[C@@H]1O (some centres unmarked) [MOG, methyl 3-0-glucose]",percentage of live explants,"explants; MOG 5 g/l, mannose 0 g/l, sucrose 0 g/l",13
same,percentage of live explants,"explants; MOG 5 g/l, mannose 0 g/l, sucrose 10 g/l",100
same,percentage of live explants,"explants; MOG 5 g/l, mannose 5 g/l, sucrose 0 g/l",54
same,percentage of live explants,"explants; MOG 5 g/l, mannose 5 g/l, sucrose 10 g/l",100
same,percentage of live explants,"explants; MOG 5 g/l, mannose 10 g/l, sucrose 0 g/l",0
same,percentage of live explants,"explants; MOG 5 g/l, mannose 10 g/l, sucrose 10 g/l",5
same,percentage of live explants,"explants; MOG 10 g/l, mannose 0 g/l, sucrose 0 g/l",47
same,percentage of live explants,"explants; MOG 10 g/l, mannose 0 g/l, sucrose 10 g/l",100
same,percentage of live explants,"explants; MOG 10 g/l, mannose 5 g/l, sucrose 0 g/l",82
same,percentage of live explants,"explants; MOG 10 g/l, mannose 5 g/l, sucrose 10 g/l",100
same,percentage of live explants,"explants; MOG 10 g/l, mannose 10 g/l, sucrose 0 g/l",9
same,percentage of live explants,"explants; MOG 10 g/l, mannose 10 g/l, sucrose 10 g/l",41
same,percentage of live explants,"explants; MOG 20 g/l, mannose 0 g/l, sucrose 0 g/l",50
same,percentage of live explants,"explants; MOG 20 g/l, mannose 0 g/l, sucrose 10 g/l",100
same,percentage of live explants,"explants; MOG 20 g/l, mannose 5 g/l, sucrose 0 g/l",98
same,percentage of live explants,"explants; MOG 20 g/l, mannose 5 g/l, sucrose 10 g/l",100
same,percentage of live explants,"explants; MOG 20 g/l, mannose 10 g/l, sucrose 0 g/l",88
same,percentage of live explants,"explants; MOG 20 g/l, mannose 10 g/l, sucrose 10 g/l",100
same,GUS+ shoots/explant,[4]; MOG 2.5 g/l,0.2
same,GUS+ shoots/sel. shoots (%),[4]; MOG 2.5 g/l,57%
same,GUS+ shoots/explant,[4]; MOG 5.0 g/l,1.0
same,GUS+ shoots/sel. shoots (%),[4]; MOG 5.0 g/l,81%
same,GUS+ shoots/explant,[4]; MOG 10 g/l,0.5
same,GUS+ shoots/sel. shoots (%),[4]; MOG 10 g/l,89%
same,GUS+ shoots/explant,[4]; MOG 15 g/l,0.6
same,GUS+ shoots/sel. shoots (%),[4]; MOG 15 g/l,53%
same,regenerated shoots as a percentage of shoots on substrates without mannose and methyl-3-0-glucose,"Wild type explants; MOG 2.5, mannose 0 g/l, sucrose 0 g/l, 11 weeks",0
same,regenerated shoots as a percentage of shoots on substrates without mannose and methyl-3-0-glucose,Wild type explants; [6],53
same,regenerated shoots as a percentage of shoots on substrates without mannose and methyl-3-0-glucose,Wild type explants; [7],0
same,regenerated shoots as a percentage of shoots on substrates without mannose and methyl-3-0-glucose,Wild type explants; [8],6
same,regenerated shoots as a percentage of shoots on substrates without mannose and methyl-3-0-glucose,Wild type explants; [9],0
same,regenerated shoots as a percentage of shoots on substrates without mannose and methyl-3-0-glucose,Wild type explants; [10],0
same,regenerated shoots as a percentage of shoots on substrates without mannose and methyl-3-0-glucose,Wild type explants; [11],0
same,regenerated shoots as a percentage of shoots on substrates without mannose and methyl-3-0-glucose,Wild type explants; [12],0
same,regenerated shoots as a percentage of shoots on substrates without mannose and methyl-3-0-glucose,Wild type explants; [13],0
same,regenerated shoots as a percentage of shoots on substrates without mannose and methyl-3-0-glucose,Wild type explants; [14],17
same,regenerated shoots as a percentage of shoots on substrates without mannose and methyl-3-0-glucose,Wild type explants; [15],0
same,regenerated shoots as a percentage of shoots on substrates without mannose and methyl-3-0-glucose,Wild type explants; [16],41
same,regenerated shoots as a percentage of shoots on substrates without mannose and methyl-3-0-glucose,Wild type explants; [17],0
same,regenerated shoots as a percentage of shoots on substrates without mannose and methyl-3-0-glucose,Wild type explants; [18],0
same,regenerated shoots as a percentage of shoots on substrates without mannose and methyl-3-0-glucose,Wild type explants; [19],0
same,regenerated shoots as a percentage of shoots on substrates without mannose and methyl-3-0-glucose,Wild type explants; [20],0
same,regenerated shoots as a percentage of shoots on substrates without mannose and methyl-3-0-glucose,"[5]; MOG 2.5, mannose 0 g/l, sucrose 0 g/l",0
same,regenerated shoots as a percentage of shoots on substrates without mannose and methyl-3-0-glucose,[5]; [6],0
same,regenerated shoots as a percentage of shoots on substrates without mannose and methyl-3-0-glucose,[5]; [7],7
same,regenerated shoots as a percentage of shoots on substrates without mannose and methyl-3-0-glucose,[5]; [8],64
same,regenerated shoots as a percentage of shoots on substrates without mannose and methyl-3-0-glucose,[5]; [9],64
same,regenerated shoots as a percentage of shoots on substrates without mannose and methyl-3-0-glucose,[5]; [10],86
same,regenerated shoots as a percentage of shoots on substrates without mannose and methyl-3-0-glucose,[5]; [11],107
same,regenerated shoots as a percentage of shoots on substrates without mannose and methyl-3-0-glucose,[5]; [12],200
same,regenerated shoots as a percentage of shoots on substrates without mannose and methyl-3-0-glucose,[5]; [13],0
same,regenerated shoots as a percentage of shoots on substrates without mannose and methyl-3-0-glucose,[5]; [14],0
same,regenerated shoots as a percentage of shoots on substrates without mannose and methyl-3-0-glucose,[5]; [15],0
same,regenerated shoots as a percentage of shoots on substrates without mannose and methyl-3-0-glucose,[5]; [16],64
same,regenerated shoots as a percentage of shoots on substrates without mannose and methyl-3-0-glucose,[5]; [17],28
same,regenerated shoots as a percentage of shoots on substrates without mannose and methyl-3-0-glucose,[5]; [18],36
same,regenerated shoots as a percentage of shoots on substrates without mannose and methyl-3-0-glucose,[5]; [19],128
same,regenerated shoots as a percentage of shoots on substrates without mannose and methyl-3-0-glucose,[5]; [20],86
"C/C(=C\CNc1ncnc2[nH]cnc12)CO[C@@H]1O[C@H](C(=O)O)[C@@H](O)[C@H](O)[C@H]1O [ZOGN sodium salt, O-β-D-glucopyranuronosylzeatin, sodium salt]","Hydrolysis by β-glucuronidase (GUS), result in words",[3],virtually complete conversion to trans zeatin
same,"Shoot formation, GUS-",[1],"+ (""+"" means shoot formation at concentrations below 250 μM)"
same,"Shoot formation, GUS+",[2],"+ (""+"" means shoot formation at concentrations below 250 μM)"
C/C(=C\CNc1ncnc2[nH]cnc12)CO [Zeatin],"Shoot formation, GUS-",[1],"+ (""+"" means shoot formation at concentrations below 250 μM)"
same,"Shoot formation, GUS+",[2],"+ (""+"" means shoot formation at concentrations below 250 μM)"
